The text below walks through data of US20210128561A1, “MRGX Receptor Antagonists” (Rheinische-Friedrich-Wilhelms-Universität Bonn, priority 2019, published 2021).

What is called EC50 is the concentration that produces a half-maximal response. In general, IC50 refers to the midpoint of a concentration-inhibition curve.

In test [1] the target is T1, MrgX2 (Homo sapiens, UniProt Q96LB1).
T1 construct: host or cells: recombinant HEK cells (A3); CHEM1 cells recombinantly expressing MrgX2 (A11)
T1 sequence (Q96LB1 1-330): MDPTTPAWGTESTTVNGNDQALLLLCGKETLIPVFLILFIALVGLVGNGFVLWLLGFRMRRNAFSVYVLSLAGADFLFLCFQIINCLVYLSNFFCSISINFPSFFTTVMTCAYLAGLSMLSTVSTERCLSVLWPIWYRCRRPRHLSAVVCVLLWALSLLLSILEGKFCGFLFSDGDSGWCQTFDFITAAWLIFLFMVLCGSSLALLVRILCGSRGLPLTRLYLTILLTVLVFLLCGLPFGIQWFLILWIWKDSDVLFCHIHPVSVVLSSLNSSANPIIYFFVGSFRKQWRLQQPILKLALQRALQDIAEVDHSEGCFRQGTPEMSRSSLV
The following applies: read-out: EC50 value; calcium assays, MrgX2 activation; cited from earlier work.

The next test deals with human LAD2 mast cells. The note with it: cited from earlier work.
The target in the next test is T2, human wildtype MrgX2 (Homo sapiens, UniProt Q96LB1).
T2 construct: expressed in transfected cells; host or cells: LN229 cells
T2 sequence (Q96LB1 1-330): T1 sequence (Q96LB1 1-330)
The test can be described thus: calcium assay (LN229 cells recombinantly expressing human wildtype MrgX2). Type of test: cell-based. The note with it: for % inhibition ± SEM: test concentration not given.

In the next test the target is T3, human MrgX4 L83S (Homo sapiens, UniProt Q96LA9, L83S).
T3 construct: expressed in transfected cells; host or cells: CHO beta-arrestin cells
Briefly: β-arrestin assay (CHO β-arrestin human MrgX4 L83S). It is filed as cell-based. The note with it: for % inhibition ± SEM: test concentration not given.

For test [2], the target named is T1, MrgX2. The note with it: calcium assays; cited from earlier work.
For test [3], the target named is T1, MrgX2. The note with it: versus CST-14, calcium mobilization; cited from earlier work. For orientation: Calcium flux is commonly read through the fluorescence of an indicator in the cells.
The target in test [4] is T1, MrgX2. The note with it: calcium mobilization assay; cited from earlier work.
In test [5] the target is T1, MrgX2. The note with it: β-arrestin assay; cited from earlier work.
Test [6] relates to CHEM1 cells without MrgX2 overexpression. The note with it: cited from earlier work.
The target in test [7] is T1, MrgX2. The note with it: CHEM1 cell line recombinantly expressing MrgX2; cited from earlier work.

Where two headings read alike, the source gives them in different places. Ends that are not written are not given here. Bounds are passed on as bounds.

T3 sequence (Q96LA9 whole entry L83S): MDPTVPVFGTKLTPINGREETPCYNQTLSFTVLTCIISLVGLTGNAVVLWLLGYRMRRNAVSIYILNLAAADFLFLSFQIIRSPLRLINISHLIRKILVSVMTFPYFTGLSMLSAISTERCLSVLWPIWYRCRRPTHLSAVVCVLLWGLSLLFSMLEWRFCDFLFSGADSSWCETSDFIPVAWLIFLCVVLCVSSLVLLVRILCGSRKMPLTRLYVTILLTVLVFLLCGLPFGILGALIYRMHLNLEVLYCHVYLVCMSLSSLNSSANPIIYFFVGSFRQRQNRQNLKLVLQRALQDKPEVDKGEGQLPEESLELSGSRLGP

In the case of `COc1ccc2c(c1)[C@@]13CCCC[C@H]1[C@@H](C2)NCC3` [3-methoxymorphinan], on MrgX2 [1], the concentration giving a half-maximal response (EC50) is 4700 nM.

Turning to `C[C@H]1O[C@@H](O[C@H]2CC[C@@]3(C)[C@@H](CC[C@]4(C)[C@@H]3C=C[C@]35OC[C@@]6(CCC(C)(C)C[C@H]63)[C@@H](O)C[C@]54C)[C@]2(C)CO)[C@H](O)[C@@H](O[C@@H]2O[C@H](CO)[C@@H](O)[C@H](O)[C@H]2O)[C@H]1O` [saikosaponin A, Saikosaponin A], the “β-hexosaminidase release of substance P and saikosaponin A together” value with human LAD2 mast cells (0.50 μM saikosaponin A vs. 30 μg/mL (≈31.2 μM) compound 48/80, LAD2) is given as 30%.

Regarding “substance P (RPKPQQFFGLM-NH2; ends and bridges not checked; UniProt P20366 58-68, looked up)”, the “β-hexosaminidase release of SP alone” value in the test with human LAD2 mast cells (1 μM substance P, LAD2) is 60%. Also, in the test on human LAD2 mast cells (saikosaponin A study, stimulus stated as 30 μg/mL compound 48/80, LAD2), the “β-hexosaminidase release of substance P alone” value is recorded as 100%.

Take Gln-D-Trp(Formyl-)Phe-benzylester [QWF]: the “β-hexosaminidase release of SP and QWF together” value with human LAD2 mast cells (100 μM QWF vs. 1 μM substance P, LAD2) was 20%.

Take `CCCc1c(C(C)C)[nH]c2nc3ccccc3n2c1=O` [B-42]: at human wildtype MrgX2, the IC50 was over 100000 nM and the “% inhibition ± SEM” value amounted to 68%. The 50% inhibitory concentration (IC50) against human MrgX4 L83S is 512 ± 107 nM.

Consider `CN1CC[C@]23c4c5ccc(O)c4O[C@H]2[C@@H](O)C=C[C@H]3[C@H]1C5` [morphine], for which the 50% effective concentration (EC50) at MrgX2 [1] was 4500 nM.

As for `C[C@@H]1C[C@H]2Cc3ncc(-c4ccc5c(n4)C[C@@H]4C[C@@H](C)C[C@]56NCCC[C@H]46)cc3[C@]3(C1)NCCC[C@H]23` [Complanadine A], on MrgX2 [2], the EC50 was 5500 nM.

Consider `CCc1c(C(C)C)[nH]c2nc3cc(Cl)c(Cl)cc3n2c1=O` [B-41], for which the IC50 on human wildtype MrgX2 was 8.27 ± 0.82 nM; against human MrgX4 L83S, 477 ± 87 nM.

In the case of `CCCc1c(CC)c(=O)n2c([nH]c3ccccc32)c1C#N` [C-88], at human wildtype MrgX2, the IC50 is over 10000 nM and the “% inhibition ± SEM” value was 86%. This molecule also gave an IC50 against human MrgX4 L83S of 5540 ± 1740 nM.

Turning to `CN1CC[C@@]23CCCC[C@@H]2[C@@H]1Cc1ccc(O)cc13` [dextrorphan], at MrgX2 [1], the EC50 is 1400 nM.

Regarding `CCc1c(C(C)C)[nH]c2nc3ccc(C)cc3n2c1=O` [C-70], the IC50 stood at 0.352 ± 0.07 nM at human wildtype MrgX2 and 147 ± 15 nM at human MrgX4 L83S.

On to `O=c1c2ccccc2[nH]c(=S)n1Cc1ccccn1` [compound 2, 3-(pyridine-2-ylmethyl)-2-thioxo-2,3-dihydro-4H-1λ^2-quinazolin-4-one], for which, at MrgX2 [3], the half-inhibitory concentration (IC50) was 2500 nM.

Take `CC(C)c1cc(=O)n2c3ccccc3n(C)c2n1` [B-36]: on human wildtype MrgX2, the IC50 was over 100000 nM and the “% inhibition ± SEM” value was 10%. At human MrgX4 L83S, the IC50 was over 100000 nM and the “% inhibition ± SEM” value stood at 48%.

For `CC(C)c1cc(=S)n2c(nc3ccccc32)[nH]1` [B-56], the figures for the IC50 at human wildtype MrgX2 and on human MrgX4 L83S were 3.94 ± 1.67 nM and 148 ± 42 nM, respectively.

As to `CN1CC[C@]2(c3cccc(O)c3)Cc3nc4ccccc4cc3C[C@H]2C1` [TAN-67], the EC50 at MrgX2 [4] and at MrgX2 [5] was about 1000 nM in each case.

In the case of `CCCc1[nH]c2nc3cc(C)c(C)cc3n2c(=O)c1CC` [B-44], the IC50 at human wildtype MrgX2 was 199 ± 25 nM; against human MrgX4 L83S, 1400 ± 360 nM.

As for `CCCc1c(-c2ccccc2)[nH]c2nc3ccccc3n2c1=O` [A-21], the IC50 on human wildtype MrgX2 came out at 12.1 ± 1.5 nM; against human MrgX4 L83S, 583 ± 49 nM.

As to `CCOC(=O)CCc1c(C)[nH]c2nc3ccccc3n2c1=O` [A-15], the IC50 was over 100000 nM at human wildtype MrgX2 and 1400 ± 880 nM against human MrgX4 L83S. The “% inhibition ± SEM” value at human wildtype MrgX2 is reported as 3%.

For `CCc1c(CC(C)C)[nH]c2nc3ccccc3n2c1=O` [C-78], the IC50 on human wildtype MrgX2 is 51.3 ± 19.1 nM; at human MrgX4 L83S, 468 ± 52 nM.

Consider `O=C(/C=C/c1ccc(O)cc1)c1ccc(O)cc1O` [isoliquiritigenin, Isoliquiritigenin], for which, in the test with human LAD2 mast cells (50 μM isoliquiritigenin vs. 30 μg/mL (≈31.2 μM) compound 48/80, LAD2), the “β-hexosaminidase release of compound 48/80 and isoliquiritigenin together” value was 40%.

Take `CCc1c(C(C)C)[nH]c2nc3cc(C)c(C)cc3n2c1=O` [B-39]: the IC50 turned out to be 18.4 ± 5.4 nM on human wildtype MrgX2 and 87.7 ± 36.8 nM on human MrgX4 L83S.

As for `CCCc1cc(=O)n2c(nc3ccccc32)[nH]1` [A-19], the IC50 on human wildtype MrgX2 is over 100000 nM; at human MrgX4 L83S, 14700 ± 1300 nM. For the same molecule, the “% inhibition ± SEM” value on human wildtype MrgX2 stood at 27%.

As for `CCc1c(C(C)C)[nH]c2nc3cc(Br)c(Br)cc3n2c1=O` [C-75], the results for the IC50 at human wildtype MrgX2 and against human MrgX4 L83S were 36.8 ± 8.4 nM and 890 ± 184 nM, respectively.

For `CCc1c(C(C)C)[nH]c2nc3cc(C)ccc3n2c1=O` [C-71], the values for the concentration for half-maximal inhibition (IC50) at human wildtype MrgX2 and on human MrgX4 L83S were 0.446 ± 0.142 nM and 91 ± 29.2 nM, respectively.

As for `CCc1c(C(C)C)[nH]c2nc3cc(F)c(F)cc3n2c1=O` [B-40], the IC50 was 0.42 ± 0.054 nM at human wildtype MrgX2 and 22.5 ± 2.4 nM against human MrgX4 L83S.

Regarding `CCc1c(C(C)C)[nH]c2nc3c(C)cccc3n2c1=O` [B-38], the half-inhibitory concentration (IC50) on human wildtype MrgX2 is 54 ± 19.2 nM. In addition, on human MrgX4 L83S, the IC50 was over 100000 nM and the “% inhibition ± SEM” value was found to be 15%.

Turning to `CCc1c(C(C)C)[nH]c2nc3cc(F)ccc3n2c1=O` [C-74], the figures for the IC50 on human wildtype MrgX2 and against human MrgX4 L83S were 1.26 ± 0.29 nM and 18 ± 4.4 nM, respectively.

Turning to `Cc1[nH]c2nc3ccccc3n2c(=O)c1C` [A-8], the values for the IC50 on human wildtype MrgX2 and against human MrgX4 L83S were 2890 ± 240 nM and 11600 ± 3700 nM, respectively.

On to `CC(=O)N1c2ccccc2Nc2ccccc21` [Compound 1, 1-(5H-10λ^2-phenazin-5-yl)ethan-lone], for which, at MrgX2 [3], the IC50 was 1600 nM.

With `CCc1c(-c2ccccc2)[nH]c2nc3ccccc3n2c1=O` [C-79], at human wildtype MrgX2, the half-inhibitory concentration (IC50) is over 10000 nM and the “% inhibition ± SEM” value turned out to be 105%. This molecule registered an IC50 against human MrgX4 L83S of 540 ± 76 nM.

Regarding `CC(C)c1cc(=O)n2c(nc3ccccc32)[nH]1` [A-17], at human wildtype MrgX2, the half-maximal inhibitory concentration (IC50) was over 100000 nM and the “% inhibition ± SEM” value amounted to 70%. Besides, the concentration for half-maximal inhibition (IC50) against human MrgX4 L83S amounted to 3220 ± 820 nM.

Turning to `Cc1[nH]c2nc3ccccc3n2c(=O)c1CCO` [B-34], the IC50 on human wildtype MrgX2 and against human MrgX4 L83S was over 100000 nM each time. Moreover, the “% inhibition ± SEM” value at human wildtype MrgX2 is recorded as −2%; at human MrgX4 L83S, 22%.

For the molecule `CCCc1c(C)[nH]c2nc3ccccc3n2c1=O` [A-10], the IC50 at human wildtype MrgX2 amounted to 683 ± 174 nM; on human MrgX4 L83S, 2420 ± 220 nM.

`CCc1c(C(C)C)[nH]c2nc3ccccc3n2c1=O` [B-37]: the IC50 on human wildtype MrgX2 was determined as 2.48 ± 0.75 nM; against human MrgX4 L83S it was 290 ± 98 nM.

B1: CXCL14: small chemokine (C-X-C motif) ligand 14 (protein, UniProt O95715 35-111, looked up)
C-X-C motif chemokine 14: SKCKCSRKGPKIRYSDVKKLEMKPKYPHCEEKMVIITTKSVSRYRGQEHCLHPKLQSTKRFIKWYNAWNEKRRVYEE
As to B1, the calcium release entry in [6] is recorded as “not to mediate calcium release”. In the test with MrgX2 [7], the EC50 is 570 nM.
